Results reported in patent US8367623B2, “Glycolipid and medicine for autoimmune disease containing the same as active ingredient” (Japan as Represented by President of National Center of …, priority 2001, dated 2013).

Experiments:
[1] = tested on: Murine spleen cells; assay: spleen cell proliferation reaction (thymidine incorporation); type: cell-based; conditions: FIG. 7 and FIG. 9
Description: Murine spleen cells were isolated, and the proliferation reaction for the synthesized glycolipids were measured using thymidine incorporation into the cells as the indicator.
(§1) Murine spleen cells were isolated, and the proliferation reactions for synthesized glycolipids were measured using thymidine incorporation into the cells as the indicator. […] Murine spleen cells were isolated, and levels of INF-γ and IL-4 formation due to the synthesized glycolipids were measured using the ELISA method.

[2] = tested on: Murine spleen cells; assay: spleen cell cytokine measurements (INF-γ and IL-4, ELISA); type: cell-based; conditions: FIG. 8 and FIG. 9
Description: Murine spleen cells were isolated, and levels of INF-γ and IL-4 formation due to synthesized glycolipids were measured using the ELISA method.
as §1

[3] = tested on: experimental autoimmune encephalomyelitis (EAE); assay: experimental autoimmune encephalomyelitis (EAE) suppression test, B6 mice; type: in vivo, C57BL6J(B6) mice; conditions: for Incidence / Onset / Total score / Max. score / Path. score: 400 ng/kg; for Path. score: pathological score 0-4; for EAE suppression effect: oral administration 400 ng/kg
[4] = tested on: collagen induced arthritis; assay: collagen arthritis (CIA) suppression test, SJL mice; type: in vivo; conditions: FIG. 4
[5] = tested on: collagen induced arthritis; assay: collagen arthritis (CIA) suppression test, C57BL6 mice; type: in vivo; conditions: B6 mice, 500 μg/kg intraperitoneally twice a week from the additional immunization, FIG. 4
[6] = tested on: serum INF-γ and IL-4; assay: cytokines in blood (serum INF-γ and IL-4, ELISA); type: in vivo; conditions: administered to mice, serum levels with elapsed time, FIG. 6
Description: A large amount of cytokine is known to be released into the blood in a short duration of time when NKT cells are stimulated. Therefore, serum INF-γ and IL-4 levels with elapsed time were measured using the ELISA method when the synthesized glycolipids were administered to mice.

[7] = tested on: experimental autoimmune encephalomyelitis (EAE); assay: mechanism of EAE suppression, with or without anti-IL-4 antibody; type: in vivo, mice
[8] = tested on: experimental autoimmune encephalomyelitis (EAE); assay: EAE suppression test in NKT knockout mice; type: in vivo, NKT knockout mice (TCR J alpha 281 knockout mice); conditions: for Incidence / Max. score / Onset / Total score: NKT knockout mice, 0 day oral administration, 400 ng/kg
[9] = tested on: anti-MOG antibody; assay: serum anti-MOG antibody measurements (ELISA); type: in vivo; conditions: FIG. 10
Text: The ELISA method was used to measure levels of anti-MOG antibody and its isotype in the group treated using synthesized glycolipids. The anti-MOG antibody level rose in the group treated using Compound 25.

[10] = tested on: diabetes incidence; assay: suppression test of diabetes incidence in NOD mice; type: in vivo; conditions: NOD mice four weeks in age, 100 μg/kg intraperitoneal, twice, FIG. 5
Description: Next, a suppression test of diabetes incidence was conducted using NOD mice.

[11] = tested on: experimental autoimmune encephalomyelitis (EAE), collagen induced arthritis; conditions: J. Immunol. 2001, 166, 662-669, cited from earlier work
[12] = 0 day oral administration, clinical score 0-6
[13] = anti-IL-4 (+), anti-IL-4 antibody (1 mg/ml) intraperitoneally

SMILES: CCCCCCCCCCCCCCCCCCCCCCCC(=O)N[C@@H](CO[C@H]1O[C@H](CO)[C@H](O)[C@H](O)[C@H]1O)[C@H](O)[C@H](O)CCCC [Compound 23, (2S,3S,4R)-1-O-(α-D-galactosyl)-2-(tetracosanoylamino)-1,3,4-octane triol]
- spleen cell proliferation reaction [1]: Significant spleen cell proliferation reaction
- cytokine predominantly formed by spleen cells (INF-γ / IL-4) [2]: IL-4 was predominantly formed

SMILES: CCCCCCCCCCCCCCCCCCCCCCCC(=O)N[C@@H](CO[C@H]1O[C@H](CO)[C@H](O)[C@H](O)[C@H]1O)[C@H](O)[C@H](O)CCC [Compound 24, (2S,3S,4R)-1-O-(α-D-galactosyl)-2-(tetracosanoylamino)-1,3,4-heptane triol]
- spleen cell proliferation reaction [1]: Significant spleen cell proliferation reaction
- cytokine predominantly formed by spleen cells (INF-γ / IL-4) [2]: IL-4 was predominantly formed

SMILES: CCCCCCCCCCCCCCCCCCCCCCCC(=O)N[C@@H](CO[C@H]1O[C@H](CO)[C@H](O)[C@H](O)[C@H]1O)[C@H](O)[C@H](O)CCCCC [Compound 25, (2S,3S,4R)-1-O-(α-D-galactosyl)-2-(tetracosanoylamino)-1,3,4-nonane triol]
- spleen cell proliferation reaction [1]: Significant spleen cell proliferation reaction
- Incidence ([3]; 0 day oral administration): 10/12
- Onset ([3]; 0 day oral administration): 14.80 ± 1.22
- Total score ([3]; 0 day oral administration): 10.71 ± 3.23
- Max. score [3, 12]: 1.42 ± 0.33
- Path. score ([3]; 0 day oral administration): 1.00 ± 0.13
- Incidence ([3]; 8th day oral administration): 6/7
- Max. score ([3]; 8th day oral administration): 2.25 ± 0.51
- Onset ([3]; 8th day oral administration): 16.43 ± 1.95
- Total score ([3]; 8th day oral administration): 10.94 ± 3.40
- EAE suppression effect ([3]; result in words): EAE suppression effect was observed
- suppression effect in the pathological test ([3]; oral administration, result in words): suppression effect was observed
- cytokine predominantly formed by spleen cells (INF-γ / IL-4) [2]: IL-4 was predominantly formed
- suppression of collagen induced arthritis (clinical score) ([4]; 500 μg/kg intraperitoneally twice a week from the additional immunization): effectively suppressed
- suppression of collagen induced arthritis (clinical score) ([4]; 500 μg/kg intraperitoneally twice a week, administration upon appearance of symptoms): effectively suppressed
- suppression of collagen induced arthritis (clinical score) [5]: A suppression effect was observed
- serum cytokine predominantly formed (INF-γ / IL-4) [6]: IL-4 was predominantly formed
- Incidence [7, 13]: 10/10
- Max. score [7, 13]: 3.50 ± 0.15
- Onset [7, 13]: 9.43 ± 0.90
- Total score [7, 13]: 38.79 ± 2.94
- Incidence ([7]; anti-IL-4 (−)): 9/10
- Max. score ([7]; anti-IL-4 (−)): 2.75 ± 0.37
- Onset ([7]; anti-IL-4 (−)): 11.00 ± 0.78
- Total score ([7]; anti-IL-4 (−)): 26.05 ± 4.16
- EAE suppression effect when anti-IL-4 antibody was administered ([7]; anti-IL-4 antibody, result in words): disappeared
- EAE suppression effect ([8]; NKT knockout mice (TCR J alpha 281 knockout mice), result in words): could not be observed
- Incidence [8]: 6/6
- Max. score [8]: 3.64 ± 0.28
- Onset [8]: 12.43 ± 0.53
- Total score [8]: 34.36 ± 4.15
- anti-MOG antibody isotype, IgG1 level [9]: rose significantly
- anti-MOG antibody level [9]: rose
- diabetes incidence [10]: significantly suppressed

SMILES: CCCCCCCCCCCCCCCCCCCCCCCCCC(=O)N[C@@H](CO[C@H]1O[C@H](CO)[C@H](O)[C@H](O)[C@H]1O)[C@H](O)[C@H](O)CCCCCCCCCCCCCC [α-GC, (2S,3S,4R)-1-O-(α-D-galactosyl)-2-(N-hexacosanoylamino)-1,3,4-octadecane triol, reference compound]
- Incidence ([3]; 0 day oral administration): 12/12
- Onset ([3]; 0 day oral administration): 14.27 ± 0.98
- Total score ([3]; 0 day oral administration): 20.32 ± 4.07
- Max. score [3, 12]: 2.41 ± 0.37
- Path. score ([3]; 0 day oral administration): 1.79 ± 0.38
- Incidence ([3]; 8th day oral administration): 7/7
- Max. score ([3]; 8th day oral administration): 3.00 ± 0.29
- Onset ([3]; 8th day oral administration): 13.86 ± 0.99
- Total score ([3]; 8th day oral administration): 17.50 ± 2.74
- EAE suppression effect ([3]; result in words): no suppression effect was observed
- cytokine predominantly formed by spleen cells (INF-γ / IL-4) [2]: INF-γ was predominantly formed
- serum cytokine predominantly formed (INF-γ / IL-4) [6]: INF-γ was predominantly formed
- Incidence [7, 13]: 10/10
- Max. score [7, 13]: 3.79 ± 0.29
- Onset [7, 13]: 11.29 ± 1.58
- Total score [7, 13]: 37.00 ± 5.02
- Incidence ([7]; anti-IL-4 (−)): 10/10
- Max. score ([7]; anti-IL-4 (−)): 4.00 ± 0.25
- Onset ([7]; anti-IL-4 (−)): 9.10 ± 0.84
- Total score ([7]; anti-IL-4 (−)): 45.00 ± 3.87
- Incidence [8]: 6/6
- Max. score [8]: 3.67 ± 0.42
- Onset [8]: 13.33 ± 1.41
- Total score [8]: 32.25 ± 6.66
- effect in suppressing or treating autoimmune diseases ([11]; EAE and collagen induced arthritis models): clearly not effective
- cytokines induced [11]: induces both IL-4, a cytokine that suppresses autoimmune diseases, as well as IFN-γ
